Laboratory results reported in patent US11603349B2, “Anti-fibrotic compounds” (Certa Therapeutics Pty Ltd, priority 2017, dated 2023).
pIC50: −log10 of the molar value.

Tests used:
[1] = tested on: TGF-β induced [14C]-proline incorporation in rat mesangial cells; experiment: [14C]-proline incorporation assay (collagen biosynthesis); assay type: cell-based; details: Rattus norvegicus, Mesangial cell, 44 h, inhibition of TGF-β1 (1 ng/ml) induced [14C]-proline incorporation, IRMC cells
[2] = MTS tetrazolium reduction cell viability assay; details: rat, rat mesangial cells (1097/IRMC cells), TGF-β1 stimulated, CC50 (μM), vs 1% DMSO vehicle

Row | pIC50 [1] | Structure (SMILES) | CC50 at 48 h [2] [µM]
1 | 4.42 | C#CCOc1ccc(/C=C/C(=O)Nc2ccccc2C(=O)NC2COC2)cc1OC [Example 38, (E)-2-(3-(3-methoxy-4-(prop-2-yn-1-yloxy)phenyl)acrylamido)-N-(oxetan-3-yl)benzamide] | 236
2 | 4.32 | C#CCOc1ccc(/C=C/C(=O)Nc2ccccc2C(=O)NCC2CCOC2)cc1OC (stereo not drawn) [Example 39, (E)-2-(3-(3-methoxy-4-(prop-2-yn-1-yloxy)phenyl)acrylamido)-N-((tetrahydrofuran-3-yl)methyl)benzamide] | 85.8
3 | 5.17 | C#CCOc1ccc(/C=C/C(=O)Nc2ccccc2C(=O)NCc2cncn2C)cc1OC [Example 40, (E)-2-(3-(3-methoxy-4-(prop-2-yn-1-yloxy)phenyl)acrylamido)-N-((1-methyl-1H-imidazol-5-yl)methyl)benzamide] | > 300
4 | 4.60 | C#CCOc1ccc(/C=C/C(=O)Nc2ccccc2C(=O)NCc2ccccn2)cc1OC [Example 41, (E)-2-(3-(3-methoxy-4-(prop-2-yn-1-yloxy)phenyl)acrylamido)-N-(pyridin-2-ylmethyl)benzamide] | 341
5 | 4.77 | C#CCOc1ccc(/C=C/C(=O)Nc2ccccc2C(=O)NCCc2ccccn2)cc1OC [Example 42, (E)-2-(3-(3-methoxy-4-(prop-2-yn-1-yloxy)phenyl)acrylamido)-N-(2-(pyridin-2-yl)ethyl)benzamide] | 52
6 | 4.35 | C#CCOc1ccc(/C=C/C(=O)Nc2ccccc2C(=O)NCc2cccnc2)cc1OC [Example 43, (E)-2-(3-(3-methoxy-4-(prop-2-yn-1-yloxy)phenyl)acrylamido)-N-(pyridin-3-ylmethyl)benzamide] | > 300
7 | 4.88 | C#CCOc1ccc(/C=C/C(=O)Nc2ccccc2C(=O)Nc2ccncc2)cc1OC [Example 44, (E)-2-(3-(3-methoxy-4-(prop-2-yn-1-yloxy)phenyl)acrylamido)-N-(pyridin-4-yl)benzamide] | 11.1
8 | 4.89 | C#CCOc1ccc(/C=C/C(=O)Nc2ccccc2C(=O)NCc2ccncc2)cc1OC [Example 45, (E)-2-(3-(3-methoxy-4-(prop-2-yn-1-yloxy)phenyl)acrylamido)-N-(pyridin-4-ylmethyl)benzamide] | 307
9 | 4.33 | C#CCOc1ccc(/C=C/C(=O)Nc2ccccc2C(=O)NCCc2ccncc2)cc1OC [Example 46, (E)-2-(3-(3-methoxy-4-(prop-2-yn-1-yloxy)phenyl)acrylamido)-N-(2-(pyridin-4-yl)ethyl)benzamide] | 186
10 | 4.54 | C#CCOc1ccc(/C=C/C(=O)Nc2ccccc2C(=O)Nc2cnn(C)c2)cc1OC [Example 47, (E)-2-(3-(3-methoxy-4-(prop-2-yn-1-yloxy)phenyl)acrylamido)-N-(1-methyl-1H-pyrazol-4-yl)benzamide] | > 300
11 | 4.62 | C#CCOc1ccc(/C=C/C(=O)Nc2ccccc2C(=O)Nc2ccn(C)n2)cc1OC [Example 48, (E)-2-(3-(3-methoxy-4-(prop-2-yn-1-yloxy)phenyl)acrylamido)-N-(1-methyl-1H-pyrazol-3-yl)benzamide] | 309
12 | 4.60 | C#CCOc1ccc(/C=C/C(=O)Nc2ccccc2C(=O)NC2CCNCC2)cc1OC [Example 49, (E)-2-(3-(3-methoxy-4-(prop-2-yn-1-yloxy)phenyl)acrylamido)-N-(piperidin-4-yl)benzamide] | 30.6
13 | 4.32 | COc1cc(/C=C/C(=O)Nc2ccccc2C(=O)O)ccc1OCC1CCNCC1 [Example 50, (E)-2-(3-(3-methoxy-4-(piperidin-4-ylmethoxy)phenyl)acrylamido)benzoic acid] | 107
14 | 4.81 | COc1cc(/C=C/C(=O)Nc2ccccc2C(=O)O)ccc1OC1CCN(C)C1 (stereo not drawn) [Example 51, (E)-2-(3-(3-methoxy-4-((1-methylpyrrolidin-3-yl)oxy)phenyl)acrylamido)benzoic acid] | > 300
15 | 4.95 | COc1cc(/C=C/C(=O)Nc2ccccc2C(=O)O)ccc1OCc1c(C)noc1C [Example 52, (E)-2-(3-(4-((3,5-dimethylisoxazol-4-yl)methoxy)-3-methoxyphenyl)acrylamido)benzoic acid] | 140
16 | 4.83 | COc1cc(/C=C/C(=O)Nc2ccccc2C(=O)O)ccc1OCc1cnn(C)c1 [Example 53, (E)-2-(3-(3-methoxy-4-((1-methyl-1H-pyrazol-4-yl)methoxy)phenyl)acrylamido)benzoic acid] | 226
17 | 4.62 | COc1cc(/C=C/C(=O)Nc2ccccc2C(=O)O)ccc1OCC1COC1 [Example 54, (E)-2-(3-(3-methoxy-4-(oxetan-3-ylmethoxy)phenyl)acrylamido)benzoic acid] | > 300
18 | 4.35 | COc1cc(/C=C/C(=O)Nc2ccccc2C(=O)O)ccc1OCc1ccccn1 [Example 55, (E)-2-(3-(3-methoxy-4-(pyridin-2-ylmethoxy)phenyl)acrylamido)benzoic acid] | 86.1

Row | pIC50 [1] | Structure (SMILES) | CC50 at 48 h [2] [µM]
19 | 4.49 | COc1cc(/C=C/C(=O)Nc2ccccc2C(=O)O)ccc1OCCc1ccccn1 [Example 56, (E)-2-(3-(3-methoxy-4-(2-(pyridin-2-yl)ethoxy)phenyl)acrylamido)benzoic acid] | 150
20 | 5.03 | COc1cc(/C=C/C(=O)Nc2ccccc2C(=O)O)ccc1OCCc1cccnc1 [Example 57, (E)-2-(3-(3-methoxy-4-(2-(pyridin-3-yl)ethoxy)phenyl)acrylamido)benzoic acid] | > 76.6
21 | 4.41 | COc1cc(/C=C/C(=O)Nc2ccccc2C(=O)O)ccc1OCc1ccncc1 [Example 58, (E)-2-(3-(3-methoxy-4-(pyridin-4-ylmethoxy)phenyl)acrylamido)benzoic acid] | 266
22 | 4.92 | COc1cc(/C=C/C(=O)Nc2ccccc2C(=O)O)ccc1OCCc1ccncc1 [Example 59, (E)-2-(3-(3-methoxy-4-(2-(pyridin-4-yl)ethoxy)phenyl)acrylamido)benzoic acid] | 148
23 | 4.69 | COc1cc(/C=C/C(=O)Nc2ccccc2C(=O)O)ccc1OCc1ccnn1C [Example 60, (E)-2-(3-(3-methoxy-4-((1-methyl-1H-pyrazol-5-yl)methoxy)phenyl)acrylamido)benzoic acid] | 100
24 | 4.31 | COCCOc1cc(/C=C/C(=O)Nc2ccccc2C(=O)O)ccc1OC [Example 61, (E)-2-(3-(4-methoxy-3-(2-methoxyethoxy)phenyl)acrylamido)benzoic acid] | 276
25 | 4.31 | COc1ccc(/C=C/C(=O)Nc2ccccc2C(=O)O)cc1OCCc1ccccn1 [Example 62, (E)-2-(3-(4-methoxy-3-(2-(pyridin-2-yl)ethoxy)phenyl)acrylamido)benzoic acid] | 321
26 | 4.74 | COc1ccc(/C=C/C(=O)Nc2ccccc2C(=O)O)cc1OCc1cccnc1 [Example 63, (E)-2-(3-(4-methoxy-3-(pyridin-3-ylmethoxy)phenyl)acrylamido)benzoic acid] | 79.4
27 | 4.85 | COc1ccc(/C=C/C(=O)Nc2ccccc2C(=O)O)cc1OCCc1cccnc1 [Example 64, (E)-2-(3-(4-methoxy-3-(2-(pyridin-3-yl)ethoxy)phenyl)acrylamido)benzoic acid] | 142
28 | 4.74 | COc1ccc(/C=C/C(=O)Nc2ccccc2C(=O)O)cc1OCCc1ccncc1 [Example 65, (E)-2-(3-(4-methoxy-3-(2-(pyridin-4-yl)ethoxy)phenyl)acrylamido)benzoic acid] | 152
29 | 4.77 | COc1ccc(/C=C/C(=O)Nc2ccccc2C(=O)O)cc1OCc1cnn(C)c1 [Example 66, (E)-2-(3-(4-methoxy-3-((1-methyl-1H-pyrazol-4-yl)methoxy)phenyl)acrylamido)benzoic acid] | > 300
30 | 4.63 | COc1ccc(/C=C/C(=O)Nc2ccccc2C(=O)O)cc1OCc1ccnn1C [Example 67, (E)-2-(3-(4-methoxy-3-((1-methyl-1H-pyrazol-5-yl)methoxy)phenyl)acrylamido)benzoic acid] | 144
31 | 4.35 | COc1cc(/C=C/C(=O)Nc2ccccc2C(=O)O)ccc1CN1CCN(C)CC1 [Example 68, (E)-2-(3-(3-methoxy-4-((4-methylpiperazin-1-yl)methyl)phenyl)acrylamido)benzoic acid] | > 300
32 | 4.32 | COc1cc(/C=C/C(=O)Nc2ccccc2C(=O)O)ccc1CN1CCOCC1 [Example 69, (E)-2-(3-(3-methoxy-4-(morpholinomethyl)phenyl)acrylamido)benzoic acid] | 691
33 | 4.30 | COc1ccc(/C=C/C(=O)Nc2ccccc2C(=O)O)cc1COC1CCN(C)CC1 [Example 70, (E)-2-(3-(4-methoxy-3-(((1-methylpiperidin-4-yl)oxy)methyl)phenyl)acrylamido)benzoic acid] | > 300
34 | 4.91 | C#CCOCc1cc(/C=C/C(=O)Nc2ccccc2C(=O)O)ccc1OC [Example 71, (E)-2-(3-(4-methoxy-3-((prop-2-yn-1-yloxy)methyl)phenyl)acrylamido)benzoic acid] | 116
35 | 4.82 | C#CCOCc1ccc(/C=C/C(=O)Nc2ccccc2C(=O)O)cc1OC [Example 72, (E)-2-(3-(3-methoxy-4-((prop-2-yn-1-yloxy)methyl)phenyl)acrylamido)benzoic acid] | > 300
36 | 4.48 | COCc1cc(/C=C/C(=O)Nc2ccccc2C(=O)O)ccc1OC [Example 73, (E)-2-(3-(4-methoxy-3-(methoxymethyl)phenyl)acrylamido)benzoic acid] | > 300
